Reference: patent publication US20240010639A1, “TRIAZINE DIONE DERIVATIVE, PREPARATION METHOD THEREFOR AND APPLICATION THEREOF IN MEDICINE” (Jiangsu Hengrui Pharmaceuticals Co., Ltd., priority 2020, published 2024)
Where two headings read alike, the source gives them in different places.

Assay: Pharmacokinetic evaluation in beagles
Assay type: in vivo
Details: for AUC / half-life / Cmax / MRT / Vd/F / CL/F: both (Example 16), male (MYK-461), beagle, dog, plasma; for AUC: read-out: Area under curve AUC; for half-life: read-out: Half-life T1/2 (converted); for Cmax: read-out: Plasma concentration Cmax; for MRT: read-out: Residence time MRT; for Vd/F: read-out: Apparent volume of distribution Vz/F; for CL/F: read-out: Clearance CL/F
Procedure: With beagles as test animals, the plasma concentrations of the test compounds were measured by LC/MS/MS at different time points after intragastric administration and intravenous injection. The pharmacokinetic performance of the compound disclosed herein was studied in beagles and its pharmacokinetic profile was evaluated.
Pharmacokinetics of the compound of Example 16 in beagles: 8 beagles, an equal number of males and females, divided into 2 groups of 4, provided by Shanghai Medicilon Inc. Pharmacokinetics of compound MYK-461 in beagles: 6 beagles, male, divided into 2 groups of 3, provided by Shanghai Medicilon Inc.
A certain amount of the compound of Example 16 was measured out, and 5% DMSO, 30% PG, 30% PEG400 and 35% normal saline were added to prepare a clear solution.
A certain amount of compound MYK-461 was measured out, and 5% DMSO, 20% PG, 20% PEG400 and 55% normal saline were added to prepare a clear solution.
Beagles were fasted overnight and then given compounds by intragastric administration and intravenous injection at doses of 2 mg/kg and 0.5 mg/kg, respectively, and at volumes of 5 mL/kg and 2 mL/kg, respectively.
1.0-mL blood samples were collected from the jugular veins or forelimb veins of the animals in the intragastric administration group before administration and 0.25 h, 0.5 h, 1.0 h, 2.0 h, 4.0 h, 6.0 h, 8.0 h, 12.0 h and 24.0 h after administration, placed into EDTA-K2 anticoagulant tubes, and centrifuged at 10,000 rpm for 5 min (4° C.), and plasma was isolated within 1 h and stored at −80° C. before analysis. The blood collection to centrifugation process was performed under ice bath conditions. Three hours after administration, feeding was resumed.
Blood samples were collected from the animals in the intravenous injection group before administration and 5 min, 0.25 h, 0.5 h, 1.0 h, 2.0 h, 4.0 h, 8.0 h, 12.0 h and 24.0 h after administration and processed as in the intragastric administration group.
Determination of plasma concentrations in beagles after intragastric administration and intravenous injection of different concentrations of test compounds: 30 μL of beagle plasma at each time point post-dose was mixed with an internal standard solution (internal standard for the compound of Example 16: 100 ng/mL warfarin; internal standard for compound MYK-461: 100 ng/mL tolbutamide) and 300 μL of methanol; the mixture was vortexed for 1 min and centrifuged at 18,000 g for 7 min, and 200 μL of the supernatant was transferred to a 96-well plate; 1 μL of the supernatant was taken for LC/MS/MS analysis.

[1] = intravenous injection, 0.5 mg/kg
[2] = po, intragastric administration, 2 mg/kg

SMILES | T1/2 comparison (in words) | absorption profile (in words) | AUC [1] | half-life [1] | Cmax [1] | MRT [1] | Vd/F [2] | AUC [2] | CL/F [2] | half-life [2] | Cmax [2] | MRT [2] | Apparent volume of distribution Vz/F [1] | Clearance CL/F [1]
Cc1ccc(F)c([C@H](C)Nc2nc(=O)n(C3CCOCC3)c(=O)[nH]2)c1 [Example 16, (S)-6-((1-(2-Fluoro-5-methylphenyl)ethyl)amino)-3-(tetrahydro-2H-pyran-4-yl)-1,3,5-triazine-2,4(1H,3H)-dione] | significantly shorter T1/2 | good absorption profile | 716 ng·h/mL | 5.6 h | 1080 ng/mL | 7.5 h | 6.05 L/kg | 3100 ng·h/mL | 9.26 mL/min/kg | 7.5 h | 1540 ng/mL | 9.5 h | 5.022 L/kg | 10.4 mL/min/kg
CC(C)n1c(=O)cc(N[C@@H](C)c2ccccc2)[nH]c1=O [MYK-461, reference compound] | longer T1/2 |  | 1380 ng·h/mL | 47.2 h | 215 ng/mL | 72.2 h | 3.9 L/kg | 8720 ng·h/mL | 1.48 mL/min/kg | 38.9 h | 1440 ng/mL | 59.2 h | 6.308 L/kg | 1.63 mL/min/kg
